Data reported in patent publication US8778401B2, “Mesoporous material excipients for poorly aqueous soluble ingredients” (Agency for Science, Technology and Research, priority 2008, dated 2014).

Experiments:
Type in all cases: physicochemical
[1] = Storage stability of the amorphous form at 40° C./75% RH (XRD); conditions: same conditions (40° C./75% RH) for just one week
Method: The storage stability was tested in severe storage condition of 75% relative humidity and temperature of 40° C., denoted as 40° C./75% RH.
A broad peak at 2-θ of 15-30° is typical in diffraction patterns of X-ray amorphous silica.
The amorphous state of these drugs formed by spray drying with mesoporous materials is stable after being subject to stress conditions of 40° C./75% RH for at least six months.

[2] = Dissolution test of ibuprofen formulations (USP dissolution tester, online UV); conditions: 900 mL 0.1N HCl at 37° C., 100 rpm
Method: The suspension was spray-dried in a Buchi Spray Drier B290. The inlet temperature was set to 81° C. and the outlet temperature was ˜50° C. The pump speed was set to “20”. […] Stirring speed is 100 rpm. Sample was taken by auto sampling system at interval of 5 min. UV reading was taken at wavelength 222 nm.
The dissolution profile was measured using VK7010 (Varian Co) USP dissolution tester with flow cell online UV-vis analysis system. Stirring rate is 100 rpm and vessel temperature is set at 37° C.
The dissolution is performed using the same method as in Example 1.

[3] = Dissolution of spray-dried indomethacin with SBA-15 in pH 6.8 phosphate buffer; conditions: 900 mL of pH 6.8 phosphate buffer
Method: FIG. 15 illustrates dissolution profiles of spray-dried indomethacin with SBA-15 in powder form and tablet form, and a comparison with raw indomethacin crystal. (900 mL of pH 6.8 phosphate buffer, 50 mg spray-dried indomethacin with SBA-15 in powder form or tablet with 800 mg cornstarch at 1 ton press, raw crystal form is 25 mg).

In the case of COc1ccc2c(c1)c(CC(=O)O)c(C)n2C(=O)c1ccc(Cl)cc1 [indomethacin], the “stability of amorphous form after storage” value [1] is reported as “re-crystallized”.

In the case of CC(C)Cc1ccc(C(C)C(=O)O)cc1 (stereo not shown) [pure ibuprofen crystal, ibuprofen], the “Dissolution test data 15 min” value ([2]; 25 mg ibuprofen or equivalent, 15 min) is reported as 17.5%, the “Dissolution test data 30 min” value ([2]; 25 mg ibuprofen or equivalent, 30 min) is reported as 25.6% and the “Dissolution test data 45 min” value ([2]; 25 mg ibuprofen or equivalent, 45 min) is reported as 35.6%. The “dissolved in 15 min” value ([2]; powder form, 15 min) was 17.5% and the “dissolved within 15 min, tablet form” value ([2]; tablet with 0.8 g cornstarch, 1 ton press, 15 min) was 16.4%.

For COc1ccc2c(c1)c(CC(=O)O)c(C)n2C(=O)c1ccc(Cl)cc1 [commercial indomethacin, indomethacin], the “dissolution within 15 min” value [3] was 25%.
